Measurements from patent US20050090398A1, “Novel tetrazole derivative useful as herbicides” (priority 2002, published 2005).

Key:
Echinochloa crusgalli = assay: Test of post-emergence foliage treatment against field weeds; assay type: in vivo; conditions: post-emergence foliage treatment at 2-leaf stage, 2.0 kg/ha effective component, examined 3 weeks after treatment
Procedure: (§1) Preparation of formulation of the active compound • Carrier: Acetone 5 parts by weight • Emulsifier: Benzyloxy polyglycol ether 1 part by weight
(§2) A formulation of an active substance is obtained as an emulsifiable concentrate by mixing 1 part by weight of the active compound with the above-mentioned amount of the carrier and emulsifier. A prescribed amount of the formulation is diluted with water.
(§3) In a green house, seeds of Echinochloa crusgalli, Setaria viridis, Amaranthus retro-flexus and Polygonum were sown in a 120 cm^2 pot filled with field soil and covered with soil. 10 days after the sowing and soil covering (weeds were 2-leaf stage in average) a diluted solution of the prescribed chemical amount prepared in the same manner as in the above-mentioned Test Example 1 was spread uniformly on the foliage of the test plants in each test pot. The herbicidal effect was examined 3 weeks after the treatment.

Setaria viridis = assay: as above; assay type: in vivo; conditions: post-emergence foliage treatment at 2-leaf stage, 2.0 kg/ha effective component, examined 3 weeks after treatment
Procedure: as §1, §2, §3

Polygonum = assay: as above; assay type: in vivo; conditions: post-emergence foliage treatment at 2-leaf stage, 2.0 kg/ha effective component, examined 3 weeks after treatment
Procedure: as §1, §2, §3

Amaranthus retroflexus = assay: as above; assay type: in vivo; conditions: post-emergence foliage treatment at 2-leaf stage, 2.0 kg/ha effective component, examined 3 weeks after treatment
Procedure: as §1, §2, §3

paddy field weeds = assay: Test for herbicidal effect against paddy field weeds; assay type: in vivo; conditions: 0.25 kg/ha active component, applied to water surface 5 days after rice transplantation, examined after 3 weeks
Procedure: as §1, §2
(§4) In a green house 3 seedlings of paddy rice (variety: Nihonbare) of 2.5 leaf stage (15 cm tall) were transplanted in a 500 cm^2 pot filled with paddy field soil. Then seeds or tubers of Echinochloa crusgalli, Cyperus difformis L., Scirpus juncoides Roxburgh, Monochoria vaginalis Presl, broad-leaved weeds (Lindernia Procumbens Philcox, Rotala indica Koehne, Elatine triandra Schk, Ammannia multiflora Roxb., Dopatrium junceum Hammilt etc.), Cyperus serotinus Rottboel and Sagittaria pygmaea Miq were inoculated and water was poured to a depth of about 2-3 cm. 5 days after the rice transplantation a prescribed, diluted solution of each formulation of active compound prepared according to the aforementioned preparation method was applied to the surface of water. After the treatment the water depth of 3 cm was maintained and the herbicidal effect was examined after 3 weeks from the treatment. The herbicidal effect was rated 100% in the case of complete death and as 0% in the case of no herbicidal effect.

transplanted paddy rice = assay: Paddy field test: safety to transplanted paddy rice; assay type: in vivo, paddy rice (variety: Nihonbare); conditions: 0.25 kg/ha active component, applied to water surface 5 days after rice transplantation, examined after 3 weeks
Procedure: as §1, §2, §4

| SMILES | melting point [°C] | herbicidal activity against Echinochloa crusgalli (Echinochloa crusgalli) [%] | herbicidal activity against Setaria viridis (Setaria viridis) [%] | herbicidal activity against Polygonum (Polygonum) [%] | herbicidal activity against Amaranthus retroflexus (Amaranthus retroflexus) [%] | herbicidal effect against paddy field weeds (paddy field weeds) | safety to the transplanted paddy rice (transplanted paddy rice) |
| --- | --- | --- | --- | --- | --- | --- | --- |
| O=C1CCCC(Cl)=C1C(=O)c1ccc(Cl)c(OCCn2cnnn2)c1Cl | 122 to 124 |  |  |  |  |  |  |
| O=C1CCCC(Sc2ccccc2)=C1C(=O)c1ccc(Cl)c(OCCn2cnnn2)c1Cl | 64 to 70 |  |  |  |  |  |  |
| O=C1CCCC(=O)C1C(=O)c1ccc(Cl)c(OCCn2cnnn2)c1Cl [compound 212] |  | 90 | 90 | 90 | 90 |  |  |
| CC1(C)CC(=O)C(C(=O)c2ccc(Cl)c(OCCn3cnnn3)c2Cl)C(=O)C1 [compound 213] |  | 90 | 90 | 90 | 90 |  |  |
| CC1CC(=O)C(C(=O)c2ccc(Cl)c(OCCn3cnnn3)c2Cl)C(=O)C1 (centres unmarked) [compound 215] |  | 90 | 90 | 90 | 90 |  |  |
| O=C(c1ccc(Cl)c(OCCn2cnnn2)c1Cl)C1C(=O)C2CCC(C2)C1=O (centres unmarked) [compound 217] |  |  |  |  |  | sufficient herbicidal effect | safety to the transplanted paddy rice |
| O=C1CCCC(Sc2ccccc2)=C1C(=O)c1ccc(Cl)c(OCCn2cnnn2)c1Cl [compound 219] |  |  |  |  |  | sufficient herbicidal effect | safety to the transplanted paddy rice |
| O=C1CCCC(Cl)=C1C(=O)c1ccc(Cl)c(OCCn2cnnn2)c1Cl [compound 258] |  | 90 | 90 | 90 | 90 |  |  |
| CCn1ncc(C(=O)c2ccc(Cl)c(OCCn3cnnn3)c2Cl)c1O [compound 272] |  | 90 | 90 | 90 | 90 |  |  |
| Cc1nnnn1CCOc1c(Cl)ccc(C(=O)C2C(=O)CCCC2=O)c1Cl [compound 275] |  | 90 | 90 | 90 | 90 |  |  |
| CS(=O)(=O)c1ccc(C(=O)C2C(=O)CCCC2=O)c(Cl)c1Cn1cnnn1 [compound 495] |  | 90 | 90 | 90 | 90 |  |  |
| Cc1nnnn1Cc1c(S(C)(=O)=O)ccc(C(=O)C2C(=O)CCCC2=O)c1Cl [compound 558] |  |  |  |  |  | sufficient herbicidal effect | safety to the transplanted paddy rice |
| CSc1nnnn1Cc1c(S(C)(=O)=O)ccc(C(=O)C2C(=O)CCCC2=O)c1Cl [compound 650] |  | 90 | 90 | 90 | 90 |  |  |
| CS(=O)(=O)c1ccc(C(=O)C2C(=O)CCCC2=O)c(Cl)c1OCCn1cnnn1 [compound 715] |  | 90 | 90 | 90 | 90 |  |  |
| O=C1CCCC(=O)C1C(=O)c1ccc(Br)c(OCCn2cnnn2)c1Br [compound 1234] |  | 90 | 90 | 90 | 90 |  |  |
| O=C(c1ccc(Br)c(OCCn2cnnn2)c1Br)C1C(=O)C2CCC(C2)C1=O (centres unmarked) [compound 1239] |  | 90 | 90 | 90 | 90 |  |  |
| CCn1ncc(C(=O)c2ccc(Br)c(OCCn3cnnn3)c2C)c1O [compound 1593] |  | 90 | 90 | 90 | 90 |  |  |

| SMILES | melting point [°C] | herbicidal activity against Echinochloa crusgalli (Echinochloa crusgalli) [%] | herbicidal activity against Setaria viridis (Setaria viridis) [%] | herbicidal activity against Polygonum (Polygonum) [%] | herbicidal activity against Amaranthus retroflexus (Amaranthus retroflexus) [%] | herbicidal effect against paddy field weeds (paddy field weeds) | safety to the transplanted paddy rice (transplanted paddy rice) |
| --- | --- | --- | --- | --- | --- | --- | --- |
| CCn1ncc(C(=O)c2ccc([N+](=O)[O-])c(OCCn3cnnn3)c2C)c1O [compound 1693] |  | 90 | 90 | 90 | 90 |  |  |
| O=C1CCCC(=O)C1C(=O)c1ccc(Cl)c(OCCn2ncnn2)c1Cl [compound 2017] |  | 90 | 90 | 90 | 90 |  |  |
| O=C(c1ccc(Cl)c(OCCn2ncnn2)c1Cl)C1C(=O)C2CCC(C2)C1=O (centres unmarked) [compound 2022] |  | 90 | 90 | 90 | 90 |  |  |
| O=C1CCCC(Sc2ccccc2)=C1C(=O)c1ccc(Cl)c(OCCn2ncnn2)c1Cl [compound 2024] |  |  |  |  |  | sufficient herbicidal effect | safety to the transplanted paddy rice |
| O=C1CCCC(Cl)=C1C(=O)c1ccc(Cl)c(OCCn2ncnn2)c1Cl [compound 2063] |  | 90 | 90 | 90 | 90 |  |  |
| CCn1ncc(C(=O)c2ccc(Cl)c(OCCn3ncnn3)c2Cl)c1O [compound 2077] |  | 90 | 90 | 90 | 90 |  |  |
| Cc1nnn(CCOc2c(Cl)ccc(C(=O)C3C(=O)CCCC3=O)c2Cl)n1 [compound 2080] |  | 90 | 90 | 90 | 90 |  |  |
| Cc1nnn(CCOc2c(Cl)ccc(C(=O)C3C(=O)CC(C)(C)CC3=O)c2Cl)n1 [compound 2081] |  | 90 | 90 | 90 | 90 |  |  |
| CS(=O)(=O)c1ccc(C(=O)C2C(=O)CCCC2=O)c(Cl)c1Cn1ncnn1 [compound 2301] |  | 90 | 90 | 90 | 90 |  |  |
| Cc1ccc(SC2=C(C(=O)c3ccc(S(C)(=O)=O)c(Cn4ncnn4)c3Cl)C(=O)CCC2)cc1 [compound 2329] |  |  |  |  |  | sufficient herbicidal effect | safety to the transplanted paddy rice |
| Cc1cccc(C)c1SC1=C(C(=O)c2ccc(S(C)(=O)=O)c(Cn3ncnn3)c2Cl)C(=O)CCC1 [compound 2335] |  |  |  |  |  | sufficient herbicidal effect | safety to the transplanted paddy rice |
| CS(=O)(=O)c1ccc(C(=O)C2=C(Cl)CCCC2=O)c(Cl)c1Cn1ncnn1 [compound 2347] |  | 90 | 90 | 90 | 90 |  |  |
| Cc1nnn(Cc2c(S(C)(=O)=O)ccc(C(=O)C3C(=O)CCCC3=O)c2Cl)n1 [compound 2364] |  | 90 | 90 | 90 | 90 | sufficient herbicidal effect | safety to the transplanted paddy rice |
| CS(=O)(=O)c1ccc(C(=O)C2C(=O)CCCC2=O)c(Cl)c1OCCn1ncnn1 [compound 2521] |  | 90 | 90 | 90 | 90 |  |  |
| O=C1CCCC(=O)C1C(=O)c1ccc(Br)c(OCCn2ncnn2)c1Br [compound 3038] |  | 90 | 90 | 90 | 90 |  |  |
| O=C(c1ccc(Br)c(OCCn2ncnn2)c1Br)C1C(=O)C2CCC(C2)C1=O (centres unmarked) [compound 3043] |  | 90 | 90 | 90 | 90 |  |  |
